Patent publication US20250040539A1, “COMPOSITION COMPRISING AN ANTIMICROBIAL AGENT AND A CARBOXAMIDE” (BASF SE, priority 2021, published 2025)

Tested on: bacterial mix: Escherichia coli DSM 1576, Alcaligenes faecalis DSM 13644, Pseudomonas aeruginosa ATCC 15442, Staphylococcus aureus ATCC 6538, Burkholderia …
Test: Preservative activity of a basic composition (10% PG in water, pH 7) with 1,2-benzisothiazol-3(2H)-one (BIT) against bacterial contamination (Example 2.3)
Format: cell-based
Conditions: 10% PG + 0.004% BIT, no amide (Comparative 2); day 7
Procedure: An aqueous composition of pH 7 comprising 10% by weight of propyleneglycol (PG) as organic solvent, 0.004% by weight of 1,2-benzisothiazol-3(2H)-one (BIT) as antimicrobial and 0.04% by weight of the amide listed in the below table was tested for its preserving activity against bacterial contamination (the percentages are weight percent and relate to the total weight of the composition). For this purpose, the samples were contaminated with a bacterial mix consisting of: • Escherichia coli DSM 1576 • Alcaligenes faecalis DSM 13644 • Pseudomonas aeruginosa ATCC 15442 • Staphylococcus aureus ATCC 6538 • Burkholderia cepacia DSM 7288 • Pseudomonas putida DSM 12735
The samples were inoculated with the bacterial mix at day 0 to obtain 10E+06 to 10E+07 CFU/ml inoculation in the test sample and stored at 25° C. for 7 days.
CFU was determined at day 7.
Any CFU value at day 7 (d7) obtained with a sample according to the invention containing BIT and amide (10% PG+0.004% BIT+Amide in water) lower than the respective value of the “comparative 2” example (10% by weight of propyleneglycol+0.004% by weight of 1,2-benzisothiazol-3(2H)-one (BIT) in water) indicates a better performance.

O=c1[nH]sc2ccccc12 [BIT, 1,2-benzisothiazol-3(2H)-one, reference compound]
d7 [CFU/ml]: >100,000 CFU/ml
